# In the supplement of paper PMC8960247:
# Where a name gives a salt, the structure may show the parent alone. ± gives the standard error.
# How the values were obtained:
# 621-102 (TSC2-deficient) = assay: relative viability vs DMSO; higher = less cytotoxic; settings: serum: 10% FBS, 72 h
# 621-103 (TSC2-rescued) = assay: as above; settings: serum: 10% FBS, 72 h
# 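Also: immortalized renal angiomyolipoma cells stably carrying empty vector or TSC2, dosed in 384-well plates in DMEM, viability normalized to vehicle-treated wells within each plate.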
SMILES,relative viability (621-102 (TSC2-deficient); 0.0001 µM),relative viability (621-102 (TSC2-deficient); 0.001 µM),relative viability (621-102 (TSC2-deficient); 0.01 µM),relative viability (621-102 (TSC2-deficient); 0.1 µM),relative viability (621-102 (TSC2-deficient); 1 µM),relative viability (621-102 (TSC2-deficient); 10 µM),relative viability (621-103 (TSC2-rescued); 0.0001 µM),relative viability (621-103 (TSC2-rescued); 0.001 µM),relative viability (621-103 (TSC2-rescued); 0.01 µM),relative viability (621-103 (TSC2-rescued); 0.1 µM),relative viability (621-103 (TSC2-rescued); 1 µM),relative viability (621-103 (TSC2-rescued); 10 µM)
Cc1cn(-c2cc(NC(=O)c3ccc(C)c(Nc4nccc(-c5cccnc5)n4)c3)cc(C(F)(F)F)c2)cn1 [Nilotinib],70 ± 0.81%,71.8 ± 7.4%,70.7 ± 6.9%,96.2 ± 7.2%,93 ± 6.9%,18.9 ± 7.6%,82.55 ± 0.76%,82.1 ± 1.1%,89 ± 1.5%,90.4 ± 1.4%,84.5 ± 4.6%,7.52 ± 0.28%
COC(=O)C1=C(C)NC(C)=C(C(=O)OCC(C)C)C1c1ccccc1[N+](=O)[O-] (stereo unspecified) [Nisoldipine],100 ± 4.6%,95.6 ± 4.7%,104.6 ± 0.62%,106.7 ± 0.045%,111 ± 2.9%,65.91 ± 0.65%,110 ± 5.8%,109 ± 7.6%,108 ± 4%,111 ± 6.1%,100 ± 2.3%,67.8 ± 4.5%
CNC(=C[N+](=O)[O-])NCCSCc1csc(CN(C)C)n1 [Nizatidine],102 ± 3%,100.7 ± 0.45%,101 ± 2.1%,95.8 ± 1.8%,106 ± 3.8%,103 ± 1.6%,102.5 ± 0.9%,92.2 ± 3.2%,101 ± 4.2%,97.2 ± 1.6%,102 ± 3.1%,98.5 ± 4.4%
CO[C@@H]1[C@@H](OC(N)=O)[C@@H](O)[C@H](Oc2ccc3c(O)c(NC(=O)c4ccc(O)c(CC=C(C)C)c4)c(=O)oc3c2C)OC1(C)C [Novobiocin sodium (Albamycin)],97.5 ± 4.2%,94.9 ± 2.2%,99 ± 4%,112 ± 1.2%,107 ± 6.3%,105 ± 4.1%,104 ± 1.3%,104.4 ± 0.12%,102 ± 3.3%,98.6 ± 2.8%,105 ± 4.4%,98.5 ± 3.8%
COc1cccc2cc(-c3nc([C@H]4CC[C@H](C(=O)O)CC4)n4ncnc(N)c34)[nH]c12 [OSI-027],79.6 ± 8.2%,88.5 ± 5.6%,91.5 ± 7%,90 ± 1.8%,77.9 ± 2.4%,25.2 ± 0.58%,105 ± 2.6%,101.3 ± 0.67%,100.8 ± 0.85%,94.6 ± 4.2%,81.7 ± 4.1%,32.3 ± 0.85%
C#Cc1cccc(Nc2ncnc3cc(OCCOC)c(OCCO)cc23)c1 [OSI-420],118 ± 6.5%,106.9 ± 0.52%,103 ± 0.19%,95.9 ± 4%,115 ± 2.9%,95.8 ± 1.9%,102.2 ± 0.8%,101.12 ± 0.0035%,106.2 ± 0.97%,100 ± 1.9%,101.78 ± 0.034%,74.8 ± 1.7%
O=C(Nc1ccc(OC(F)(F)F)cc1)c1sccc1NCc1ccnc2ccccc12 [OSI-930],84 ± 2.4%,116 ± 2.3%,114 ± 4.7%,111.7 ± 0.23%,112 ± 1.4%,108 ± 5%,95.6 ± 0.43%,106 ± 1.1%,108 ± 3.1%,108 ± 1.7%,103 ± 1.7%,100.9 ± 0.9%
Cc1cc2c(s1)Nc1ccccc1N=C2N1CCN(C)CC1 [Olanzapine (Zyprexa)],108 ± 1.3%,105 ± 3.1%,110 ± 2.6%,115 ± 5.1%,108 ± 1.7%,105 ± 4.6%,103 ± 3%,100.7 ± 0.71%,102 ± 4%,104.8 ± 1%,96.8 ± 2.5%,95.1 ± 1.2%
CN(C)CC/C=C1/c2ccccc2COc2ccc(CC(=O)O)cc21 [Olopatadine HCl (Opatano)],114 ± 2.8%,114 ± 2.6%,108 ± 1.5%,113 ± 3.7%,105 ± 1.6%,97.2 ± 6.5%,104 ± 5%,103 ± 5.9%,97 ± 4%,102 ± 1.3%,98.51 ± 0.44%,103 ± 4.8%
Cc1cc(C(C)(C)C)c(O)c(C)c1CC1=NCCN1 [Oxymetazoline HCl],120 ± 4.5%,116 ± 4.1%,112 ± 2%,107 ± 4.2%,113.2 ± 0.75%,103 ± 2.8%,99.9 ± 0.63%,96.5 ± 1.5%,99.3 ± 6%,98.5 ± 5%,103 ± 4.4%,98.8 ± 3.1%
O=C(O)/C=C/c1ccc(Cn2ccnc2)cc1 [Ozagrel],100 ± 3.7%,108 ± 3.7%,105 ± 2.5%,110 ± 5.1%,102.8 ± 0.53%,95.1 ± 4.6%,107 ± 1.8%,112 ± 1.7%,98.4 ± 2.8%,104 ± 3.1%,106 ± 2.4%,103 ± 1.1%
O=C(Nc1cccnc1)N1CCC(Cc2cccc(Oc3ccc(C(F)(F)F)cn3)c2)CC1 [PF-3845],104 ± 3.4%,103 ± 2.9%,104 ± 1.5%,102.11 ± 0.087%,102 ± 3.6%,98.8 ± 1.6%,110 ± 5.4%,116 ± 8.3%,112.64 ± 0.013%,109 ± 4.7%,116.1 ± 0.73%,103 ± 1.1%
Oc1cccc(-c2nc(N3CCOCC3)c3oc4ncccc4c3n2)c1 [PI-103],105 ± 1.1%,92.1 ± 7.2%,95.5 ± 3.6%,103 ± 1.9%,91.8 ± 3.4%,37.66 ± 0.19%,112 ± 1.2%,95.6 ± 3.2%,101.2 ± 0.72%,102.5 ± 0.82%,83.4 ± 2.7%,38 ± 0.63%
COc1ccc2c3n(c(=NC(=O)c4cccnc4)nc2c1OC)CCN3 [PIK-90],85.1 ± 3.9%,107 ± 4.7%,110 ± 2.5%,112 ± 1.5%,110 ± 1.3%,96.7 ± 1.5%,99 ± 1.5%,99.75 ± 0.35%,97.73 ± 0.84%,97.82 ± 0.96%,97.97 ± 0.66%,73.4 ± 6.5%
CC(=O)Nc1nc(C)c(-c2ccc(Cl)c(S(=O)(=O)NCCO)c2)s1 [PIK-93],94.69 ± 0.6%,106 ± 2.8%,115 ± 0.89%,112 ± 3.2%,113.97 ± 0.11%,82.8 ± 0.53%,102.7 ± 0.19%,102 ± 1.3%,98.7 ± 1.2%,100.8 ± 1%,102 ± 1.7%,74.3 ± 1.8%
Cc1ccccc1-n1c(Cn2ncc3c(N)ncnc32)nc2cccc(C)c2c1=O [PIK-293],75.5 ± 1.2%,114 ± 4.8%,108 ± 1.3%,118.8 ± 0.73%,111.4 ± 0.27%,108 ± 5.3%,99.57 ± 0.92%,99.6 ± 1.1%,98.74 ± 0.94%,98.35 ± 0.28%,98.9 ± 1.9%,94.1 ± 1.5%
CN(C)C1CCN(C(=O)c2ccc(NC(=O)Nc3ccc(-c4nc(N5CCOCC5)nc(N5CCOCC5)n4)cc3)cc2)CC1 [PKI-587],52.3 ± 1.3%,38.71 ± 0.29%,29.8 ± 0.13%,22.16 ± 0.12%,17.8 ± 0.79%,13.3 ± 0.47%,72.6 ± 3.4%,49.4 ± 3%,44.8 ± 2.2%,33.8 ± 1.2%,26.61 ± 0.072%,19.91 ± 0.074%
CCCS(=O)(=O)Nc1ccc(F)c(C(=O)c2c[nH]c3ncc(Cl)cc23)c1F [PLX-4720],108 ± 2.7%,111 ± 4.3%,107 ± 4.4%,99.7 ± 4.8%,101 ± 3.2%,101 ± 1.9%,102 ± 2.3%,100.7 ± 0.75%,99.2 ± 1.6%,99.5 ± 1.8%,99.18 ± 0.44%,103.4 ± 0.45%
CC(C)n1nc(-c2cc3cc(O)ccc3[nH]2)c2c(N)ncnc21 [PP242],93.3 ± 6.1%,95.7 ± 2.2%,103 ± 2%,101.44 ± 0.046%,46 ± 1.6%,16.86 ± 0.071%,107 ± 6.5%,107.2 ± 0.94%,103 ± 2.7%,80.1 ± 1.7%,38 ± 0.41%,23.13 ± 0.076%
Nc1ncnc2c1c(-c1cnc3[nH]ccc3c1)nn2C1CCCC1 [PP-121],102 ± 4.8%,97.7 ± 2.4%,89.2 ± 0.2%,85 ± 1.9%,56.4 ± 0.66%,5.4 ± 0.81%,104.1 ± 0.76%,103 ± 2.2%,99.74 ± 0.75%,86.8 ± 3.6%,41.5 ± 1.9%,10.2 ± 0.22%
CC(=O)O[C@H]1C(=O)[C@@]2(C)[C@H]([C@H](OC(=O)c3ccccc3)[C@]3(O)C[C@H](OC(=O)[C@H](O)[C@@H](NC(=O)c4ccccc4)c4ccccc4)C(C)=C1C3(C)C)[C@]1(OC(C)=O)CO[C@@H]1C[C@@H]2O [Paclitaxel],54.2 ± 1.8%,46.8 ± 2.3%,33.66 ± 0.22%,33.1 ± 0.46%,29.6 ± 1.3%,31.1 ± 2.3%,69 ± 1.5%,59.3 ± 0.96%,40.8 ± 0.42%,34.5 ± 0.39%,28.7 ± 0.81%,42.3 ± 0.75%
CC(=O)O[C@H]1C[C@@H]2CC[C@@H]3[C@H](CC[C@@]4(C)[C@H]3C[C@H]([N+]3(C)CCCCC3)[C@@H]4OC(C)=O)[C@@]2(C)C[C@@H]1[N+]1(C)CCCCC1 [Pancuronium bromide],83.8 ± 6.4%,95.36 ± 0.26%,93.6 ± 3.5%,91.4 ± 3.3%,84.1 ± 1.2%,52.5 ± 0.78%,97.7 ± 0.99%,104 ± 1.3%,101 ± 2.5%,95 ± 3.6%,93.8 ± 4.2%,51.35 ± 0.38%
Cc1ccc(Nc2nccc(N(C)c3ccc4c(C)n(C)nc4c3)n2)cc1S(N)(=O)=O [Pazopanib Hydrochloride],78.9 ± 0.89%,104 ± 5.5%,110 ± 5.6%,114.4 ± 0.52%,104.7 ± 0.87%,82.2 ± 1.6%,92.7 ± 4.2%,99.2 ± 3.9%,102 ± 1.2%,102.1 ± 1%,100.8 ± 0.29%,55.9 ± 1.2%
CCOc1cc2ncc(C#N)c(Nc3ccc(F)c(Cl)c3)c2cc1NC(=O)/C=C/CN(C)C [Pelitinib],104 ± 2.2%,107.2 ± 0.9%,121.9 ± 0.77%,107 ± 4%,80.44 ± 0.46%,25.2 ± 3.6%,102 ± 1.2%,101 ± 1.5%,100.5 ± 0.68%,98.7 ± 3%,65.38 ± 0.34%,19.6 ± 1.3%
CCC[C@H](N[C@@H](C)C(=O)N1[C@H](C(=O)O)C[C@@H]2CCCC[C@@H]21)C(=O)OCC [Perindopril Erbumine],101 ± 0.48%,106 ± 0.46%,98.6 ± 1.7%,104.3 ± 0.76%,107.29 ± 0.055%,73.7 ± 4.8%,103.3 ± 0.76%,108.5 ± 0.44%,84.6 ± 1.6%,111 ± 3.4%,98.7 ± 11%,79.52 ± 0.69%
N=C(N)NC(=N)NCCc1ccccc1 [Phenformin HCl],114.3 ± 0.035%,113.5 ± 0.44%,113 ± 1.9%,112 ± 1.7%,110 ± 8%,105.3 ± 0.58%,101 ± 5.7%,102 ± 2.7%,99.8 ± 1.6%,104 ± 3.9%,101 ± 5.7%,101.9 ± 0.52%
O=C1N=C(O)NC1(c1ccccc1)c1ccccc1 [Phenytoin sodium],121 ± 4.2%,90.6 ± 8.7%,94.9 ± 4.7%,86.6 ± 2.5%,92 ± 6%,100.3 ± 0.98%,105 ± 2.1%,105.8 ± 0.97%,100 ± 2.4%,101 ± 2.9%,94.54 ± 0.49%,101.8 ± 0.76%
O=C1NC(=O)C(c2ccccc2)(c2ccccc2)N1 [Phenytoin],109 ± 0.34%,119 ± 4.6%,101 ± 3%,105 ± 1.9%,97.4 ± 5%,99.7 ± 1.3%,105 ± 3.8%,106 ± 6.7%,100.3 ± 0.63%,106 ± 4.5%,101 ± 3%,101 ± 7.8%
